This note sets out measurements from publication PMC6108835, “Target-Based Discovery of an Inhibitor of the Regulatory Phosphatase PPP1R15B” (Cell, 2018).

The target of test [1] is T1, R15B-PP1c holophosphatase (R15B^340-698-PP1c) (Homo sapiens, UniProt Q5SWA1).
T1 construct: cDNAs encoding amino acids 325-636 of R15A and 340-698 of R15B were cloned into pMAL-c5x; made in house; host or cells: R15B: E. coli BL21-Gold (DE3) pLysS; bio-PP1c: Sf9 insect cells (baculovirus)
In words: Holophosphatase SPR, compounds binding to reconstituted R15B-PP1c. Particulars: holophosphatase reconstituted on SA chip; 20°C; mean ± SD; read-out: KD, steady-state affinity for R15B-PP1c. As for the experimental part:
(§1) Small molecules were stored as 50 mM stock solutions in 100% DMSO. […] If necessary the concentration range was adjusted to accurately determine the KD depending on the initial results. […] This was followed by 1 min stabilization period, to wash off any unspecific binding. […] After each dilution series, the surface was regenerated using 3 M NaCl for 90 s. […] In order to be able to correct for small variations in DMSO concentration between samples, eight solvent samples ranging from 0.06 to 8% DMSO were injected every 50th cycle. The flow cell temperature was 20°C.

Test [2] has as its system R15B-PP1c holophosphatase (R15B^340-698-PP1c). The test is described as above. Particulars: ratio of SPR KD values. Also noted: species or system human. As for the experimental part: as §1
The test system of a further test is R15a −/− cells. In words: eIF2α phosphorylation and translation rates in R15a −/− MEF cells. It is filed as cell-based, mouse. Particulars: R15a −/− cells (genetic inactivation of R15A), 10 μM. As for the experimental part:
(§2) HeLa or MEF cells (90,000 cells/mL) were plated in 12-well plates (1 mL/well). The following day cells were treated as indicated; the medium was removed, fresh medium containing compound added and incubated at 37°C for the times indicated. The time course was performed in reverse order to facilitate collecting all samples at the same time. At the end of treatment cells were washed two times with ice-cold PBS and lysed in 150 μL Laemmli Buffer. Lysates were transferred to 1.5 mL eppendorf tubes, boiled at 95°C for 5 min, sonicated and resolved on Bolt SDS-PAGE 4%–12% Bis-Tris gels (ThermoFisher Scientific). Proteins were transferred to the nitrocellulose membrane using the iBlot 2 system (ThermoFisher Scientific). Membrane was blocked in 5% skimmed milk for 30 min and then probed with primary antibodies followed by incubation with the appropriate horseradish peroxidase-conjugated secondary antibodies (Promega). Proteins were visualized using ECL Prime (GE Healthcare) and imaged in the Chemi-Smart 5000 (Vilber-Lourmat, France) or ChemiDoc Touch (BioRad). Bands were quantified using ImageJ (NIH, USA). […]
HeLa or MEF cells (90,000 cells/mL) were plated in 12-well plates (1 mL/well). […] The gels were then exposed to a Storage Phosphor Screen (GE Healthcare) and analyzed by phosphorimaging using a Typhoon Imager Scanner (GE Healthcare).

The next test has as its target T2, R15B^340–698 (Homo sapiens, UniProt Q5SWA1).
T2 construct: made in house; host or cells: E. coli BL21-Gold (DE3) pLysS
In words: eIF2α pull down with MBP-tagged R15B. The following applies: Raphin1 200 μM, P-eIF2α 1 μM. It is filed as biochemical. As for the experimental part:
Recombinant eIF2α was produced as described in [Ito et al. (2004)] and pull down experiments were carried out as previously described ([Carrara et al., 2017]). Amylose beads (New England BioLabs) were pre-equilibrated with interaction buffer (50 mM Tris pH 7.4, 200 mM NaCl, 0.05% Tween20). 20 μL amylose beads were incubated with purified MBP-tagged R15s (200 nM), P-eIF2α (1 μM) as appropriate, plus 200 μM Raphin1, or DMSO vehicle in a total volume of 200 μL. Input samples (5%) was removed at this step, and added to 4% SDS-Laemmli sample buffer. Beads were incubated for 10 min at 4°C with 20 rpm gentle rotation. The beads were washed 5 × 1 mL with interaction buffer, transferred to a fresh tube and finally resuspended with 50 μL 4% SDS-Laemmli sample buffer. Eluded beads were boiled and then run on 4%–12% NuPAGE Bis-Tris gels (ThermoFisher Scientific). Anti-MBP HRP (New England BioLabs (#E8038); 1:5,000) (to probe for R15s) and anti-eIF2α (AbCam (#ab26197); 1:1,000) antibodies were used for immunoblotting analyses of samples.

A further test deals with R15A (Homo sapiens, UniProt O75807). In words: R15A levels on immunoblots of HeLa cell lysates. It is filed as cell-based. The arrangement: endogenous in cells; host or cells: HeLa. Particulars: HeLa cells, Raphin1 10 μM. As to the method: as §2
Chain of R15A (O75807 whole entry, stated change not applied): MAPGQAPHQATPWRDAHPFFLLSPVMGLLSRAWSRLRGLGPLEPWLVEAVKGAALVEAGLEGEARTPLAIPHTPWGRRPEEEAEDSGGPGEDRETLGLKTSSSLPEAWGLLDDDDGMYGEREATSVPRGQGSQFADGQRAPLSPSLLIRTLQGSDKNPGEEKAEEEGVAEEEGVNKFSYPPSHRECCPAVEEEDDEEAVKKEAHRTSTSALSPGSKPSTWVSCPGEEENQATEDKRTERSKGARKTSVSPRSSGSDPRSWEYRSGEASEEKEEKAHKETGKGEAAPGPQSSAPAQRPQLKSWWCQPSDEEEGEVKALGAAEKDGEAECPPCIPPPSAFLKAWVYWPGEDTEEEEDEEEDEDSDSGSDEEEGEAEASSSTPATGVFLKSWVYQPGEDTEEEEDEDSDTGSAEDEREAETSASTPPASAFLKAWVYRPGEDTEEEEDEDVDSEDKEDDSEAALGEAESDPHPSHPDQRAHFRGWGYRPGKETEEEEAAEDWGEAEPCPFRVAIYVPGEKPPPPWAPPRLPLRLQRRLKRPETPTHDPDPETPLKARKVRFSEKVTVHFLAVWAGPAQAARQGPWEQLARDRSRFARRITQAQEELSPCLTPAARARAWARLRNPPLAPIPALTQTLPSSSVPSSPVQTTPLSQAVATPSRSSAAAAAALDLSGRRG
For orientation: A western blot detects proteins with antibodies after separation by electrophoresis.

The term Kd denotes the constant that tells how readily two partners part at equilibrium.

T2 sequence (Q5SWA1 340-698): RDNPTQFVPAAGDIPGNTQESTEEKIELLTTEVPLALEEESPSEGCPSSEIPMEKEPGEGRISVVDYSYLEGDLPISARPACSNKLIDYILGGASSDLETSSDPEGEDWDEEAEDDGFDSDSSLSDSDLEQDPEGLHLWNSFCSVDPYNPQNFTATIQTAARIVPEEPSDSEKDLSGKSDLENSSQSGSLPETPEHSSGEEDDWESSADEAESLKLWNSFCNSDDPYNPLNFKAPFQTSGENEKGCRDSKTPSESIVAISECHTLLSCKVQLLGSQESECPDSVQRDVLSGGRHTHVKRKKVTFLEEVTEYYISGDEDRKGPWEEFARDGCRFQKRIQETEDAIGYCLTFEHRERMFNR
T1 sequence (Q5SWA1 340-698): as above
T1 sequence (P36873 1-322 partner limits assumed): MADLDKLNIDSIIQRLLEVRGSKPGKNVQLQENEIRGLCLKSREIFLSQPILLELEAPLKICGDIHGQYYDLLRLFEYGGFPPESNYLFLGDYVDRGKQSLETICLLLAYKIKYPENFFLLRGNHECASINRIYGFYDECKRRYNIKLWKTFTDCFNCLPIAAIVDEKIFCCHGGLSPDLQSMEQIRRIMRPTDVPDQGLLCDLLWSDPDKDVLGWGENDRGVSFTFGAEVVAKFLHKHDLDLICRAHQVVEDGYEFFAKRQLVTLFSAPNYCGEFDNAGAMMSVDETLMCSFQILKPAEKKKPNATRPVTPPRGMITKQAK

`[H]/N=C(\N)NN=Cc1cccc(Cl)c1Cl` [Raphin1, (E)-2-(2,3-dichlorobenzylidene)hydrazine-1-carboximidamide]: the Kd in test [1] was found to be 0.033 ± 0.02 µM. The “Selectivity in binding R15B-PP1c over R15A-PP1c” value in test [2] was roughly 30 fold. In addition, the “Raphin1-induced eIF2α phosphorylation and translation attenuation” value in the test on R15a −/− cells was “persisted”. For the same compound, at R15B^340–698, the “Recruitment of eIF2α to R15B” value is “decreased”. In addition, on R15A, the “R15A levels (decrease)” value was “not observed”.
